Where two headings read alike, the source gives them in different places.
Tests used:
[1] = target: Ba/F3-FGFR3-transfected cells (Homo sapiens, UniProt P22607); assay: Ba/F3-FGFR3 (minus IL3) cellular proliferation assay, Alamar Blue; type: cell-based; settings: for BAF3-FGFR 3 (MIN IL3) 96 well pIC50: minus IL3, 96 well; for BAF3-FGFR 3 (MIN IL3) 384 well pIC50: minus IL3, 384 well
Procedure, shortened: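 With or without 10 ng/ml murine IL3, transfected Ba/F3-FGFR3 cells in serum-containing RPMI-1640 receive compound for 24 h at 37 °C. Growth is then gauged by resazurin conversion over 4 h, read as relative fluorescence units.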

[2] = target: Ba/F3-KDR-transfected cells (Homo sapiens, UniProt P35968); assay: Ba/F3-KDR (minus IL3) cellular proliferation assay, Alamar Blue; type: cell-based
Chain of Ba/F3-KDR-transfected cells (P35968 whole entry, change not shown): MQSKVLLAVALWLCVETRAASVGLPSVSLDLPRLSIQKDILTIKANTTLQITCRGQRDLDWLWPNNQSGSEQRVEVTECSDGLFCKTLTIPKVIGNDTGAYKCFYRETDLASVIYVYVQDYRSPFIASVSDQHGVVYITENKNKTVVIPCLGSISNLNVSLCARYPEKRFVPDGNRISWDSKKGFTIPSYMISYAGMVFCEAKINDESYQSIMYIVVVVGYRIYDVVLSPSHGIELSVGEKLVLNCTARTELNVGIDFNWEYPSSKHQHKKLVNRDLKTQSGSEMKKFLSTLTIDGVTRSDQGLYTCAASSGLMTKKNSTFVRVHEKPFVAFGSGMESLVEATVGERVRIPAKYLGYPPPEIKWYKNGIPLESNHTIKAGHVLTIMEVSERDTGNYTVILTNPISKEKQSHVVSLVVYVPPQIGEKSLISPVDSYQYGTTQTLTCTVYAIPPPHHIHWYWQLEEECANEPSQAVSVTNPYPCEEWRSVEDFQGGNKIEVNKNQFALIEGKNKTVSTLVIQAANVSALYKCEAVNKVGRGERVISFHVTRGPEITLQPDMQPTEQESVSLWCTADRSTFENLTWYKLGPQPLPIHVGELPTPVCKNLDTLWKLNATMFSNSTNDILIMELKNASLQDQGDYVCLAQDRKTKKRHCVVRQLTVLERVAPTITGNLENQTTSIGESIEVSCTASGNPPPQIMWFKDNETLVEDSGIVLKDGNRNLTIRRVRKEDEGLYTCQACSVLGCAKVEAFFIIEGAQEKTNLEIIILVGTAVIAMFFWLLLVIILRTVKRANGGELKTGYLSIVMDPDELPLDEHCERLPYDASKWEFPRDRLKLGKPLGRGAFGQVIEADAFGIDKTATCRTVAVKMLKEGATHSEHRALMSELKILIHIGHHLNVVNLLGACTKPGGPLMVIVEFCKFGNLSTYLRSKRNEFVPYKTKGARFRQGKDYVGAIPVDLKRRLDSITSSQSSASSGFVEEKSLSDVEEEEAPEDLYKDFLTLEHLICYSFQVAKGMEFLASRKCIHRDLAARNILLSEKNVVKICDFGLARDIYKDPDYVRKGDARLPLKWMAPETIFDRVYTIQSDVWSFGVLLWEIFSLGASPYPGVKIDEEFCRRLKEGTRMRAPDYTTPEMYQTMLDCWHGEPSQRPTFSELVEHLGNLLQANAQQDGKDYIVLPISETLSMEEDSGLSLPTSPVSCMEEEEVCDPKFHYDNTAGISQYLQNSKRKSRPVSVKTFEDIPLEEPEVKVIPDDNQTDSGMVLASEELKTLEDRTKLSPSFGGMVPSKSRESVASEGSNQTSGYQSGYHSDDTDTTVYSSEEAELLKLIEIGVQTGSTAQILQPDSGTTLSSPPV
Procedure, shortened: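 Measured with and without 10 ng/ml murine IL3: Ba/F3-KDR cells treated 24 h with compound, then 4 h Alamar Blue, fluorescence read at 540/590 nm.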

[3] = system: Ba/F3-Flt3-transfected cells in the presence of 10 ng/ml murine IL3; assay: Ba/F3-Flt3 (plus IL3) cellular proliferation counterscreen, Alamar Blue; type: cell-based; settings: Mus musculus, read-out: BAF3-FLT3 (PLUS IL3) 96 well pIC50 (converted)
FGFR1 (h) = FGFR1 (h) (Homo sapiens, UniProt P11362); assay: FGFR1 (enzymatic assay), TR-FRET; type: biochemical; settings: read-out: FGFR 1 pIC50 (converted)
Chain of FGFR1 (h) (P11362 22-822): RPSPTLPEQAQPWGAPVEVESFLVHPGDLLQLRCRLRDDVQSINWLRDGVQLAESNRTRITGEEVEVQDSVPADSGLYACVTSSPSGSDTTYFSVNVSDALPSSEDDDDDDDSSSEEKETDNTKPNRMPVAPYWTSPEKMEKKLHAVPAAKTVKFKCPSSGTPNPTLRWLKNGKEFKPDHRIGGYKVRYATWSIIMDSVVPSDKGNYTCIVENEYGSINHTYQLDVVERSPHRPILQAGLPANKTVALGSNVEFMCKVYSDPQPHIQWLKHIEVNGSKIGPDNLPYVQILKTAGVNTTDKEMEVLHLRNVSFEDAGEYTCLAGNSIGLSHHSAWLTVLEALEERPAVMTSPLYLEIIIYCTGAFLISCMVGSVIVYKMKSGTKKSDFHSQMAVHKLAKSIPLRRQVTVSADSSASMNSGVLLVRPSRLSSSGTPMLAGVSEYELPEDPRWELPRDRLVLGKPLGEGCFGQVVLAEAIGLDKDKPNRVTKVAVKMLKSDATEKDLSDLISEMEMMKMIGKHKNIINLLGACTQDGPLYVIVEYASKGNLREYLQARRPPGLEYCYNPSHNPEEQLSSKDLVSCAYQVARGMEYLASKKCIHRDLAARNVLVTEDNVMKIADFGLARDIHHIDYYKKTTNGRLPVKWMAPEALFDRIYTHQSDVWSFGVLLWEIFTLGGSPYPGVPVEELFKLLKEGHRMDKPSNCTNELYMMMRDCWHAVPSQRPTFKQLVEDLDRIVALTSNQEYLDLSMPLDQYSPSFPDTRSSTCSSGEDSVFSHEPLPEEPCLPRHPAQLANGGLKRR
Method: In a final reaction volume of 30 μL, FGFR1 (h) (25 ng/ml) was incubated with 50 mM HEPES pH 7.5, 6 mM MnCl2, 1 mM DTT, 0.1 mM Na3VO4, 0.01% Triton-X-100, 500 nM Btn-Flt3 and 5 μM ATP in the presence of compound (1% DMSO final). […] Time-Resolved Fluorescence Resonance Energy Transfer (TR-FRET) signal (ex340 nm. Em 620 nm, em 655 nm) was measured afterwards and results are expressed in RFU (Relative Fluorescence Units).

KDR (h) (VEGFR2) = KDR (h) (VEGFR2) (Homo sapiens, UniProt P35968); assay: KDR (VEGFR2) (enzymatic assay), TR-FRET; type: biochemical
Chain of KDR (h) (VEGFR2) (P35968 20-1356): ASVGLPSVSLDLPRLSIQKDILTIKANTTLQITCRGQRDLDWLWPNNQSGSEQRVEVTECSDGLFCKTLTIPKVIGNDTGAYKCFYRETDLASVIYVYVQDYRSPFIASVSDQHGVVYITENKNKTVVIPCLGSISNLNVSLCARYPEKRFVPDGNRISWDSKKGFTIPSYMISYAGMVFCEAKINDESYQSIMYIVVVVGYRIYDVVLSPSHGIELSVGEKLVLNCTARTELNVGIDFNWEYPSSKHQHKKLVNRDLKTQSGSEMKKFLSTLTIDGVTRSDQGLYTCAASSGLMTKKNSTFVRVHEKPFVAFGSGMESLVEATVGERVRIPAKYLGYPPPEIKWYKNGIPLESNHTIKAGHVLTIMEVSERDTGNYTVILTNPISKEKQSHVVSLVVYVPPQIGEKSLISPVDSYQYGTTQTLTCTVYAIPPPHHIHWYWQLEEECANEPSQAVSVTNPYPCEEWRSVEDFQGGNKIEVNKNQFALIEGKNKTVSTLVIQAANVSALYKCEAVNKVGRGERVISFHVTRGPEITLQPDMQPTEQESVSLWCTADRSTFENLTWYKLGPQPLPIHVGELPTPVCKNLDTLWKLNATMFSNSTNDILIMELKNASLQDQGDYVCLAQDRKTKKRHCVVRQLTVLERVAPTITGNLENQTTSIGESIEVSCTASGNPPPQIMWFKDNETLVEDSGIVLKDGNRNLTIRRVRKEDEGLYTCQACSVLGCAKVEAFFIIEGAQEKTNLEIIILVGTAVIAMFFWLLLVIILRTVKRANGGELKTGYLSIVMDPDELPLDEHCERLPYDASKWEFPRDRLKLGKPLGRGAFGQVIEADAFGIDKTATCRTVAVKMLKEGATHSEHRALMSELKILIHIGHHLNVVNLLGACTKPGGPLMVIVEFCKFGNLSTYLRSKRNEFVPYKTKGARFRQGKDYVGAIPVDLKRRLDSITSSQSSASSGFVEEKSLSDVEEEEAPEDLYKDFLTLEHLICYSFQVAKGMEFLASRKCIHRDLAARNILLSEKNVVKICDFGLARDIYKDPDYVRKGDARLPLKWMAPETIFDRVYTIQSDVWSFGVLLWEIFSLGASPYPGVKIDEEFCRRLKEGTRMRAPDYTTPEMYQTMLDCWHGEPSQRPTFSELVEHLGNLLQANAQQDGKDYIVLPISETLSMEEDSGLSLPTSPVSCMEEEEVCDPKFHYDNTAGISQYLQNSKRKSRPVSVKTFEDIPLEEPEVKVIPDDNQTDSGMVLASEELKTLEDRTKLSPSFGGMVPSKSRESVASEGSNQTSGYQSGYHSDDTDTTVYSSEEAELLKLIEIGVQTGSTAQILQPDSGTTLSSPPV
Procedure, shortened: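 Low-ATP (3 μM) TR-FRET kinase assay using 500 nM Btn-Flt3 peptide and 150 ng/ml enzyme, run 2 h at room temperature with 6 mM MnCl2 and 0.1 mM Na3VO4. Signal from Eu-anti-P-Tyr/SA-XL-665 is recorded in RFU.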

[4] = system: Ba/F3-KDR-transfected cells in the presence of 10 ng/ml murine IL3; assay: Ba/F3-KDR (plus IL3) cellular proliferation counterscreen, Alamar Blue; type: cell-based; settings: plus 10 ng/ml murine IL3; for IC50: Mus musculus, read-out: BAF3-KDR (PLUS IL3) 384 well pIC50 (converted)
Method: Ba/F3-KDR (Minus IL3 or Plus IL3) (Cellular Proliferation Assay)
[…] Cells were put in an incubator at 37° C. and 5% CO2. After 24 hours, 10 μl of Alamar Blue solution (0.5 mM K3Fe(CN)6, 0.5 mM KaFe(CN)6, 0.15 mM Resazurin and 100 mM Phosphate Buffer) was added to the wells, incubated for 4 hours at 37° C. and 5% CO2 before RFU's (Relative Fluorescence Units) (ex. 540 nm., em. 590 nm.) were measured in a flurorescence plate reader.
As a counterscreen the same experiment was performed in the presence of 10 ng/ml murine IL3.
In a 96 well plate, 180 μl cell culture medium (phenol red free RPMI-1640, 10% FBS, 2 mM L-Glutamine and 50 μg/ml Gentamycin) containing 10000 cells per well of Ba/F3-KDR-transfected cells were pipette and 20 μl of compound dilution in DMSO was added. Cells were put in an incubator at 37° C. and 5% CO2. After 24 hours, 40 μl of Alamar Blue solution (0.5 mM K3Fe(CN)6, 0.5 mM KaFe(CN)6, 0.15 mM Resazurin and 100 mM Phosphate Buffer) was added to the wells, incubated for 4 hours at 37° C. and 5% CO2 RFU's (Relative Fluorescence Units) (ex. 540 nm., em. 590 nm.) were measured in a flurorescence plate reader.

Chain of Ba/F3-FGFR3-transfected cells (P22607 whole entry, change not shown): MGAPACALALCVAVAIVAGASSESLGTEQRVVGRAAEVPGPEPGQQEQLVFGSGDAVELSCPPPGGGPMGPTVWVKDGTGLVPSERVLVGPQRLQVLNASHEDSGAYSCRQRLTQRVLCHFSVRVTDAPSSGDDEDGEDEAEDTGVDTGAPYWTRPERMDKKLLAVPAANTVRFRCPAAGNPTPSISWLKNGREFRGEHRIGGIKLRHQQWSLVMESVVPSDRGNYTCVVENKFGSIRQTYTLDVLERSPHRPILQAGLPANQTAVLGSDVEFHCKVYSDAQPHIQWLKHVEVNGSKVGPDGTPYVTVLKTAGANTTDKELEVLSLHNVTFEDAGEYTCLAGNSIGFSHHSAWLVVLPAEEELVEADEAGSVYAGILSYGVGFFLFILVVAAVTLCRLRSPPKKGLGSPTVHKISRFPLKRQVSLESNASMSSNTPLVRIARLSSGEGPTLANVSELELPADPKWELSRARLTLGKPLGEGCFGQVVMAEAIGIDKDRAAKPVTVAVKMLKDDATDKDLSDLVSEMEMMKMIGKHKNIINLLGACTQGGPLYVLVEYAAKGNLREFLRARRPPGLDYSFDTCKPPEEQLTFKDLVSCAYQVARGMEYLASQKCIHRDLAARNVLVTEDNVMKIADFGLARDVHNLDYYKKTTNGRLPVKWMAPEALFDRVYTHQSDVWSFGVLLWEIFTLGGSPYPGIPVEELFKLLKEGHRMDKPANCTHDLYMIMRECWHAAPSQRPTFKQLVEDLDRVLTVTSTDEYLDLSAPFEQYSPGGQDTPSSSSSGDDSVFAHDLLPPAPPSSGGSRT

| SMILES | BAF3-FGFR 3 (MIN IL3) 96 well pIC50 [1] | BAF3-FGFR 3 (MIN IL3) 384 well pIC50 [1] | BAF3-KDR (MIN IL3) 384 well pIC50 ([2]; minus IL3, 384 well) | IC50 ([3]; plus IL3, 96 well) [nM] | IC50 (FGFR1 (h)) [nM] | IC50 (KDR (h) (VEGFR2)) [nM] | melting point [°C] | BAF3-KDR (MIN IL3) 384 well pIC50 ([2]; minus IL3) | IC50 ([3]; plus 10 ng/ml murine IL3) [nM] | IC50 [4] [nM] | BAF3-KDR (PLUS IL3) 384 well pIC50 [4] |
| --- | --- | --- | --- | --- | --- | --- | --- | --- | --- | --- | --- |
| COc1cc(OC)cc(N(CC2CC2)c2ccc3ncc(-c4cnc5[nH]ccc5c4)nc3c2)c1 [Compound 88] | <5 | <5 | <5 | > 10000 | 575 | > 10000 | 234 | – | – | – | – |
| COc1cc(OC)cc(N(CC2CC2)c2ccc3ncc(-n4cccn4)nc3c2)c1 [Compound 95] | <5 | <5 | – | – | 1320 | > 10000 | 160 | <5 | > 10000 | – | – |
| COc1cc(OC)cc(N(CC2CC2)c2ccc3ncc(NC(=O)c4ccc(F)cc4)nc3c2)c1 [Compound 28] | <5 | <5 | – | – | 2400 | > 10000 | 135 | <5 | > 10000 | > 10000 | – |
| COc1cc(OC)cc(N(CCO)c2ccc3ncc(-c4ccc(N5CCNCC5)cc4)nc3c2)c1 [Compound 166] | – | ~6.1 | – | – | 0.513 | 23.4 | 194 | 5.55 | – | 6030 | – |
| COc1cc(OC)cc(N(CC2CC2)c2ccc3ncc(N4CCN(CCO)CC4)nc3c2)c1 [Compound 49] | 5.5 | <5 | – | – | 316 | 3980 | – | <5 | > 10000 | – | – |
| COc1cc(OC)cc(N(CC2CC2)c2ccc3ncc(-c4c[nH]cn4)nc3c2)c1 [Compound 39] | 5.51 | 5.08 | – | – | 31.6 | 2950 | 166 | <5 | > 10000 | > 10000 | – |
| COc1cc(OC)cc(N(CCO)c2ccc3ncc(-c4ccc(N5CCN(C)CC5)nc4)nc3c2)c1 [Compound 163] | – | ~6.14 | – | – | 7.41 | 355 | 160 | 5.3 | – | 7590 | – |
| COc1cc(OC)cc(N(CC2CC2)c2ccc3ncc(-c4cccc(N5CCOCC5)c4)nc3c2)c1 [Compound 92] | <5 | <5 | – | – | 363 | 1950 | 155 | <5 | > 10000 | – | – |
| COc1cc(OC)cc(N(CCN2CCOCC2)c2ccc3ncc(-c4ccc(NC(=O)N5CCOCC5)nc4)nc3c2)c1 [Compound 35] | – | 6.19 | – | – | 12 | 229 | 153 | 5.11 | – | > 10000 | – |
| COCC(O)CN(c1cc(OC)cc(OC)c1)c1ccc2ncc(-c3cccnc3)nc2c1 (single isomer, unassigned) [Compound 47] | – | 6.3 | – | – | 21.4 | 339 | 153 | <5 | – | – | <5 |

Source: US10052320B2, “Substituted quinoxalines as FGFR kinase inhibitors” (ASTEX THERAPEUTICS LIMITED, priority 2011, dated 2018)
